Structures are written as SMILES. pKi: −log10 of the molar value.

One assay deals with NK1 receptor (Homo sapiens, UniProt P25103). Briefly: neurokinin receptor binding assay, NK1 (Ki). Particulars: read-out: Ki (NK1). The text has this: (§1) The in vitro and in vivo activity of the compounds of formula I can be determined by various procedures known in the art, such as a test for their ability to inhibit the activity of the NK1 agonist Substance P, an isolated hamster trachea NK2 assay, a test of the effect of NK1 antagonists on Substance P-induced airway microvascular leakage, measurement of NK2 activity in vivo in guinea pigs, measurement of bronchoconstriction due to NKA, and neurokinin receptor binding assay(s). Typical procedures are described in WO96/34857, published Nov. 7, 1996. NK3 activity is determined by following a procedure similar to that described in the literature, e.g., Molecular Pharmacol., 48 (1995), p. 711-716.
(§2) % Inhibition is the difference between the percent of maximum specific binding (MSB) and 100%. The percent of MSB is defined by the following equation, wherein "dpm" is disintegrations per minute: [formula]
(§3) Using the test procedures described above, the following 35 data (Ki) were obtained for exemplified compounds: […]

Another assay concerns the target T1, NK2 receptor (Homo sapiens, UniProt P21452).
T1 sequence (P21452 1-398): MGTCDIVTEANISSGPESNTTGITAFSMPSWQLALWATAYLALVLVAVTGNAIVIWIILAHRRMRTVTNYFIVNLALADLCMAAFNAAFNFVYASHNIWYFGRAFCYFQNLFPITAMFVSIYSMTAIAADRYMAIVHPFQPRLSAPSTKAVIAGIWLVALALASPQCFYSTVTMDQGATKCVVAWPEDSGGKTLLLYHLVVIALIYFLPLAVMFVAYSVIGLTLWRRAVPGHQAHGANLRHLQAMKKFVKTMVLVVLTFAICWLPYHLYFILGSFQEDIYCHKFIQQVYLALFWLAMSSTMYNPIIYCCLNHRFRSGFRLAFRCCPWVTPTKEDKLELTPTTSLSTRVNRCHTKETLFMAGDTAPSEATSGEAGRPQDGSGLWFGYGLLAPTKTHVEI
Briefly: neurokinin receptor binding assay, NK2 (Ki). The following applies: read-out: Ki (NK2).
Excerpt: as §1, §2, §3

Chain of NK1 receptor (P25103 whole entry): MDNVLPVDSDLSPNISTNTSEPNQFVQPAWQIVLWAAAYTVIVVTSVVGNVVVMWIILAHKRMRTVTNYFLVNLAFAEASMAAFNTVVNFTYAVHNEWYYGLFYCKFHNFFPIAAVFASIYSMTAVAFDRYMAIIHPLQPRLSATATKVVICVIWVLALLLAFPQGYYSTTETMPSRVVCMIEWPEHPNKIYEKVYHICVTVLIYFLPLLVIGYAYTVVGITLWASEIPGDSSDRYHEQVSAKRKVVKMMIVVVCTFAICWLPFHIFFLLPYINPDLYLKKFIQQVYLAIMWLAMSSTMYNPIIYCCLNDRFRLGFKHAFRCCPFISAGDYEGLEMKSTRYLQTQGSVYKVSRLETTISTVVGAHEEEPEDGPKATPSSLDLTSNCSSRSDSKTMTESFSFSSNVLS

With `CON=C(CN(C)C(=O)c1cc(C)nc(Cl)c1)C(CCN1CCC(O)(c2ccccc2)CC1)c1ccc(Cl)c(Cl)c1` (stereo not shown) [Example 30A], the negative logarithm of the Ki (pKi) is 8.85 at NK1 receptor and 8.72 at NK2 receptor.
As to `CNC(=O)CC1CCCN(C2CCN(CCC(C(CN(C)C(=O)c3cc(Cl)cc(Cl)c3)=NOCC(N)=O)c3ccc(Cl)c(Cl)c3)CC2)C1=O` (stereo not shown) [Example 15D], the pKi was 9.40 at NK1 receptor and 9.30 at NK2 receptor.
On the same counts, the results for `CON=C(CN(C)C(=O)c1cc(C)cc(C)c1)C(CCN1CCC(N2CCCCC2=O)CC1)c1ccc(Cl)c(Cl)c1` (stereo not shown) [Example 18B] are 9.10 and 9.40.
For `CON=C(CN(C)C(=O)c1cc(Cl)cc(Cl)c1)C(CCN1CCC(N2CCCC(CC(=O)N3CC(O)C3)C2=O)CC1)c1ccc(Cl)c(Cl)c1` (stereo not shown) [Example 12E], the pKi on NK1 receptor was 9.40; on NK2 receptor it was 9.70.
On to `CN(CC(=NO)C(CCN1CCC(N2CCCC(CC(N)=O)C2=O)CC1)c1ccc(Cl)c(Cl)c1)C(=O)c1cc(Cl)cc(Cl)c1` (stereo not shown) [Example 16A], for which the figures for the pKi at NK1 receptor and at NK2 receptor were 9.70 and 9.15, respectively.
For the molecule `Cc1cc(C)cc(C(=O)N(C)CC(=NOCC(=O)N2CCSCC2)C(CCN2CCC(N3CCCCC3=O)CC2)c2ccc(Cl)c(Cl)c2)c1` (stereo not shown) [Example 18J], the negative logarithm of the Ki (pKi) is 9.52 on NK1 receptor and 8.47 on NK2 receptor.
`CON=C(CN(C)C(=O)c1cc(Cl)cc(Cl)c1)C(CCN1CCC(N2CCCC(CC(=O)N3CCC(O)CC3)C2=O)CC1)c1ccc(Cl)c(Cl)c1` (stereo not shown) [Example 12L]: the pKi on NK1 receptor was 9.30; on NK2 receptor, 9.05.
As for `CNC(=O)C[C@H]1CCCN(C2CCN(CC[C@@H](C(CN(C)C(=O)c3cc(Cl)cc(Cl)c3)=NOC)c3ccc(Cl)c(Cl)c3)CC2)C1=O` [Example 13B], the figures for the pKi on NK1 receptor and at NK2 receptor were 9.05 and 9.52, respectively.
In the same order, the values of `CNC(=O)CC1CCCN(C2CCN(CCC(C(CN(C)C(=O)c3cc(C)cc(C)c3)=NOC)c3ccc(Cl)c(Cl)c3)CC2)C1=O` (stereo not shown) [Example 35] are 9.22 and 9.52.
`CNC(=O)C[C@H]1CCCN(C2CC[N+]([O-])(CC[C@@H](C(CN(C)C(=O)c3cc(Cl)cc(Cl)c3)=NOC)c3ccc(Cl)c(Cl)c3)CC2)C1=O` (stereo partly shown) [Example 13H]: the pKi is 8.59 at NK1 receptor and 9.40 on NK2 receptor.
In the same order, the values of `CON=C(CN(C)C(=O)c1cc(C)cc(Cl)c1)C(CCN1CCC(N2CCCC(CC(=O)N(C)C)C2=O)CC1)c1ccc(Cl)c(Cl)c1` (stereo not shown) [Example 27] are 9.15 and 8.92.
In the same order, the values of `CON=C(CN(C)C(=O)c1cc(Cl)cc(Cl)c1)[C@H](CCN1CCC(N2CCC[C@H](CC(N)=O)C2=O)CC1)c1ccc(Cl)c(Cl)c1` [Example 13C] are 9.40 and 9.70.
As for `Cc1cc(C)cc(C(=O)N(C)CC(=NOCC#N)C(CCN2CCC(N3CCCCC3=O)CC2)c2ccc(Cl)c(Cl)c2)c1` (stereo not shown) [Example 18D], the pKi at NK1 receptor and at NK2 receptor was 9.40 each time.
Regarding `CNC(=O)CC1CCCN(C2CCN(CCC(C(CN(C)C(=O)c3cc(Cl)cc(Cl)c3)=NOCC(=O)Nc3nncs3)c3ccc(Cl)c(Cl)c3)CC2)C1=O` (stereo not shown) [Example 15G], the negative-log Ki (pKi) at NK1 receptor was 9.05; at NK2 receptor it was 8.89.
On to `CNC(=O)CC1CCCN(C2CCN(CCC(C(CN(C)C(=O)c3cc(Cl)cc(Cl)c3)=NOCC(N)=NO)c3ccc(Cl)c(Cl)c3)CC2)C1=O` (stereo not shown) [Example 15F], for which the pKi on NK1 receptor was 9.40; at NK2 receptor, 9.10.
On to `Cc1cc(C)cc(C(=O)N(C)CC(=NOCC(=O)Nc2nncs2)C(CCN2CCC(N3CCCC(CC(=O)N(C)C)C3=O)CC2)c2ccc(Cl)c(Cl)c2)c1` (stereo not shown) [Example 19D], for which the pKi at NK1 receptor is 9.05; at NK2 receptor, 8.85.
On the same counts, the results for `CCN(CC(=NOC)C(CCN1CCC(N2CCC[C@H](CC(N)=O)C2=O)CC1)c1ccc(Cl)c(Cl)c1)C(=O)c1cc(Cl)cc(Cl)c1` (stereo partly shown) [Example 28C] are 9.40 and 9.22.

The values above are taken from patent US6063926A, “Substituted oximes as neurokinin antagonists” (Schering Corporation, priority 1998, dated 2000).
